This is an account of results in patent US5543422A, “Heterocyclic amines” (British Technology Group Limited, priority 1992, dated 1996).

Structures can show the parent of a compound that is named as a salt.

Tested on in the first data set: not listed separately
As to the kind of experiment: base strength (pka) of the terminal amine. Format: physicochemical. Conditions: Table 5, terminal amine.
Usually pKa stands for the negative logarithm of the acid dissociation constant. In the case of `NCCCCOc1cccc2ccccc12` [NH2], the pKa is 10.6.

In the case of `c1ccc2c(OCCCCn3ccnc3)cccc2c1` [imidazole], the pKa amounted to 7.33.

`c1ccc2c(OCCCCN3CCCC3)cccc2c1` [pyrrolidine, N-4-(naphth-1-yloxy)butylpyrrolidine] registered a pKa of 10.3.

The compound `c1ccc2c(OCCCCN3CCOCC3)cccc2c1` [α 4 0] registered a pKa of 7.41.

Consider `c1ccc2c(OCCCCN3CCCCC3)cccc2c1` [α 4 CH2, -4-(naphth-1-yloxy)butylpiperidine oxalate], for which the pKa worked out at 10.1.

For a further data set, the target named is T1, calmodulin (Bos taurus, UniProt P62157).
T1 construct: a sufficient amount of bovine brain calmodulin; from tissue; host or cells: bovine brain (calmodulin); bovine heart (PDE)
The experiment in a line: inhibition of calmodulin activation of cyclic nucleotide phosphodiesterase (PDE), hydrolysis of [3H] cAMP. The format is biochemical, bovine. Conditions: Table 1; mean ± S.E. of three assays; * (β CHCH 4 6) mean of two; read-out: IC50 in μM (x ± SE).
The IC50 is the concentration needed to halve the response being measured. As for `c1ccc2c(OCCCCCN3CCCCC3)cccc2c1` [α 5 CH2], the IC50 was 39.1 ± 8.9 µM.

Turning to `c1ccc2cc(SCCCCCN3CCCCC3)ccc2c1` [β 5 piperdine], the IC50 is 22.1 ± 3 µM.

Take `C(=Cc1ccc2ccccc2c1)CCCCN1CCCCC1` [β CHCH 4 6, N-6-(naphth-2-yl)hex-5-enylpiperidine oxalate]: the concentration for half-maximal inhibition (IC50) worked out at 2.2 ± 0.3 µM.

The same data set, now with this note: Table 2; mean ± S.E. of three assays; * (α 3 CH2, β 2 CH2, β 3 CH2, α 3 0, β 2 0) mean of two; read-out: IC50 in μM (x ± SE).
Consider `c1ccc2c(OCCN3CCOCC3)cccc2c1` [α 2 0], for which the half-inhibitory concentration (IC50) is greater than 250 µM.

In the case of `c1ccc2c(OCCN3CCCCC3)cccc2c1` [α 2 CH2], the IC50 came out at 152 ± 18.8 µM.

As for `c1ccc2c(OCCCN3CCOCC3)cccc2c1` [α 3 0], the 50% inhibitory concentration (IC50) was determined as 217 ± 24.7 µM.

As for `c1ccc2c(OCCCN3CCCCC3)cccc2c1` [α 3 CH2], the IC50 was 106 ± 18 µM.

With `c1ccc2c(OCCCCN3CCOCC3)cccc2c1` [α 4 0], the IC50 is 53.2 ± 10.5 µM.

For `c1ccc2c(OCCCCN3CCCCC3)cccc2c1` [α 4 CH2, -4-(naphth-1-yloxy)butylpiperidine oxalate], the IC50 was 7.4 ± 0.5 µM.

In the case of `c1ccc2c(OCCCCCN3CCOCC3)cccc2c1` [α 5 0], the IC50 came out at 42.3 ± 9.1 µM.

Turning to `c1ccc2c(OCCCCCCN3CCCCC3)cccc2c1` [α 6 CH2], the IC50 was 28.5 ± 2 µM.

`c1ccc2c(OCCCCCCCN3CCCCC3)cccc2c1` [α 7 CH2, N-7-(naphth-1-yloxy)heptylpiperidine hydrochloride]: the IC50 came to 4.7 ± 0.3 µM.

Regarding `c1ccc2c(OCCCCCCCCN3CCCCC3)cccc2c1` [α 8 CH2], the IC50 was 5.3 ± 0.3 µM.

Consider `c1ccc2cc(OCCN3CCOCC3)ccc2c1` [β 2 0], for which the IC50 is greater than 250 µM.

Consider `c1ccc2cc(OCCN3CCCCC3)ccc2c1` [β 2 CH2], for which the concentration for half-maximal inhibition (IC50) was greater than 250 µM.

In the case of `c1ccc2cc(OCCCN3CCOCC3)ccc2c1` [β 3 0], the IC50 was greater than 250 µM.

For `c1ccc2cc(OCCCN3CCCCC3)ccc2c1` [β 3 CH2], the IC50 worked out at 29.2 ± 1.4 µM.

Consider `c1ccc2cc(OCCCCN3CCOCC3)ccc2c1` [β 4 0], for which the IC50 was determined as 85.6 ± 7 µM.

Take `c1ccc2cc(OCCCCN3CCCCC3)ccc2c1` [β 4 CH2]: the IC50 amounted to 55.8 ± 6 µM.

With `c1ccc2cc(OCCCCCN3CCOCC3)ccc2c1` [β 5 0], the half-inhibitory concentration (IC50) was determined as 72.7 ± 9.4 µM.

For `c1ccc2cc(OCCCCCN3CCCCC3)ccc2c1` [β 5 CH2], the half-inhibitory concentration (IC50) worked out at 53.9 ± 1.6 µM.

Staying with this data set, now noted: Table 3; mean ± S.E. of three assays; * (β 6 piperdine) mean of two; read-out: IC50 in μM (x ± SE).
For `c1ccc2c(SCCCCN3CCCCC3)cccc2c1` [α 4 piperdine], the IC50 was 23.6 ± 1.6 µM.

On to `c1ccc2cc(SCCCN3CCCCC3)ccc2c1` [β 3 piperdine], for which the concentration for half-maximal inhibition (IC50) worked out at 77.7 ± 4.1 µM.

In the case of `c1ccc2cc(SCCCCN3CCCCC3)ccc2c1` [β 4 piperdine], the IC50 amounted to 12.3 ± 2.6 µM.

For the compound `c1ccc2cc(SCCCCN3CCCC3)ccc2c1` [β 4 pyrrolidine], the IC50 is 18 ± 1.3 µM.

On to `c1ccc2cc(SCCCCCN3CCOCC3)ccc2c1` [β 5 morpholine], for which the IC50 is 20.1 ± 2.25 µM.

For the compound `c1ccc2cc(SCCCCCCN3CCCCC3)ccc2c1` [β 6 piperdine], the half-maximal inhibitory concentration (IC50) amounted to 12.5 ± 1.5 µM.

Still in this data set, the particulars now being: Table 4, heteroatoms in the side chain; mean ± S.E.; read-out: IC50 in μM (x ± SE).
Turning to `c1ccc2c(OCCSCCN3CCCCC3)cccc2c1`, the IC50 came to 41.7 ± 6.2 µM.

As for `c1ccc2c(CCNCCCCCN3CCCCC3)cccc2c1`, the 50% inhibitory concentration (IC50) was 11.5 ± 1.6 µM.

The data set is the same for the next values; noted with them: Table 5, effect of base strength of the terminal amine; mean ± S.E.; read-out: IC50 in μM (x ± S.E.).
As to `NCCCCOc1cccc2ccccc12` [NH2], the IC50 worked out at 3.85 ± 0.2 µM.

For the compound `c1ccc2c(OCCCCn3ccnc3)cccc2c1` [imidazole], the IC50 worked out at 68.3 ± 6.7 µM.

Consider `c1ccc2c(OCCCCN3CCCC3)cccc2c1` [pyrrolidine, N-4-(naphth-1-yloxy)butylpyrrolidine], for which the 50% inhibitory concentration (IC50) came out at 4 ± 0.2 µM.

Still in this data set, the particulars now being: Table 6, halogen substitution on the naphthalene ring; mean ± S.E.; read-out: IC50 in μM (x ± SE).
Regarding `Brc1ccc2cc(OCCCCN3CCCCC3)ccc2c1`, the IC50 came to 9.3 ± 2 µM.

The same data set, now with this note: Table 7, effect of the aryl moiety; mean ± S.E. of three assays; * (drawing 9 6 pyrrolidine) mean of two; read-out: IC50 in μM (x ± SE).
Consider `Clc1ccc(OCCCCN2CCCCC2)cc1Cl`, for which the half-maximal inhibitory concentration (IC50) turned out to be 55.3 ± 10 µM.

Regarding `c1cc(OCCCCN2CCCCC2)c2ccsc2c1` [drawing 8 4 piperdine, N-[4-(benzo[b]thien-4-yloxy)butyl]piperidine oxalate], the concentration for half-maximal inhibition (IC50) came out at 1.8 ± 0.6 µM.

As to `c1cc(OCCCCN2CCCC2)c2ccsc2c1` [drawing 8 4 pyrrolidine, N-4-(benzo[b]thien-4-yloxy)butylpyrrolidine], the IC50 stood at 0.88 ± 0.14 µM.

For `c1cc(OCCCCCCN2CCCCC2)c2ccsc2c1` [drawing 8 6 piperdine, N-6-(benzo[b]thien-4-yloxy)hexylpiperidine], the IC50 was 0.38 ± 0.1 µM.

For the compound `c1cc(OCCCCCCN2CCCC2)c2ccsc2c1` [drawing 8 6 pyrrolidine, N-6-(benzo[b]thien-4-yloxy)hexylpyrrolidine], the IC50 is 0.22 ± 0.04 µM.

For the compound `c1cc(OCCCCN2CCCCC2)c2occc2c1` [drawing 9 4 piperdine], the half-maximal inhibitory concentration (IC50) was found to be 70.1 ± 8.6 µM.

Take `c1cc(OCCCCCCN2CCCC2)c2occc2c1` [drawing 9 6 pyrrolidine]: the IC50 stood at 204 ± 13.3 µM.

Staying with this data set, now noted: various concentrations.
Consider `O=C(O)C(=O)O` [oxalic acid], for which the “effect on calmodulin-activated PDE” value was “none was found”.

A further data set deals with calmodulin-independent PDE. As to the kind of experiment: inhibition of calmodulin-independent activity of PDE. Format: biochemical, bovine. Conditions: various concentrations. The procedure:
The assay was based on the incubation of calmodulin-deficient bovine heart PDE with [^3 H] cyclic adenosine monophosphate (cAMP), and a sufficient amount of bovine brain calmodulin (12.5 ng/100 μl) to give 70-80% activation of the enzyme. The resultant [^3 H] 5'-AMP formed was hydrolysed to [3H] adenosine upon incubation with the 5'-nucleotidase of the Western Diamondback Rattlesnake (Crotalus atrox). The nucleoside was then separated from the unreacted substrate using anion exchange resin. […] The degree of inhibition of calmodulin-activation of PDE in the presence of a range of drugs was expressed as a percentage of the activity of calmodulin-activated PDE in the absence of any drug. […] To give an indication of any inhibition of PDE by compounds, the activity of PDE in the presence of two concentrations of compound (approximately ten fold difference) were included in the assay. As there was no significant difference in the activity of PDE with or without the drug it was concluded that there was no inhibition of calmodulin-independent PDE by the drugs at the concentrations used. The percentage inhibition recorded for calmodulin-activated PDE was therefore due solely to the action of the drugs on the activity of calmodulin.
Take `O=C(O)C(=O)O` [oxalic acid]: the “effect on PDE” value was “none was found”.
